Laboratory results: patent US20250282732A1, “NOVEL ESTERS OF 1,2,3,4,4a,5,6,7,8,9,10,10a-DODECAHYDROBENZO[G]QUINOLIN-6-OL COMPOUNDS AND USES THEREOF” (INTEGRATIVE RESEARCH LABORATORIES SWEDEN AB, priority 2022, published 2025)

How the values were obtained:
Format in all cases: in vivo, rat
[1] = test system: non-pre-treated Sprague-Dawley rats; test: Spontaneous locomotor activity (distance travelled); conditions: for effect on motor activity patterns (distance travelled): 0.3 μmol/kg single dose, Preparation 4A SC, Example 5 PO and SC, vs saline, 0-180 min post dosing; for on-set of action (distance travelled increases after the initial decrease): time after administration
Method: Behavioral activity was measured using eight Digiscan activity monitors (RXYZM (16) TAO, Omnitech Electronics, Columbus, OH, USA), connected to an Omnitech Digiscan analyzer and an Apple Macintosh computer equipped with a digital interface board (NB DIO-24, National Instruments, USA). Each activity monitor consisted of a quadratic metal frame (W×L=40 cm×40 cm) equipped with photo beam sensors. During measurements of behavioral activity, a rat was put in a transparent acrylic cage (W×L×H, 40×40×30 cm) which in turn was placed in the activity monitor. Each activity monitor was equipped with three rows of infrared photo beam sensors, each row consisting of 16 sensors. Two rows were placed along the front and the side of the floor of the cage, at a 90° angle, and the third row was placed 10 cm above the floor to measure vertical activity. Photo beam sensors were spaced 2.5 cm apart. Each activity monitor was fitted in an identical sound and light attenuating box containing a weak house light and a fan. The computer software was written using object-oriented programming (LabVIEW™, National instruments, Austin, TX, USA). Behavioral data from each activity monitor, representing the position (horizontal center of gravity and vertical activity) of the animal at each time, were recorded at a sampling frequency of 25 Hz and collected using a custom written LABView™ application. The data from each recording session were stored and analyzed with respect to distance traveled. Each behavioral recording session lasted 180 min, starting approximately 5 min after the injection of test compound.
Compounds disclosed herein have been tested for effects on spontaneous locomotor activity in non-pre-treated Sprague-Dawley rats (based on accumulated distance travelled 0-180 min post dosing), and with the single dose of 0.3 μmol/kg (n=5, SC) compared to a control group of animals (n=5) that obtained saline (SC). The prior art compound according to Preparation 4A was administered subcutaneously (SC). The compound according to Example 5 was administered perorally (PO) and subcutaneously (SC), respectively. The unit of the distance travelled is an arbitrary unit.
The animals were placed in the motility meters immediately after administration and locomotor activity was recorded for 180 minutes. Results are presented as distance travelled for the control group (empty bar) and for the group of animals that obtained the drug (filled bar).
The animals were placed in the motility meters immediately after administration and locomotor activity was recorded for 180 minutes. Results are presented as distance travelled for the control group (empty bars) and for the group of animals that obtained the drug (filled bar).

Arc mRNA = Arc mRNA tissue levels in brain regions (real-time PCR); conditions: SC, 0.3 and 1 μmol/kg; 60 min after injection; vs controls
Method: (§1) Animals were killed 60 min after the injection of the drugs by decapitation.
(§2) The brains were dissected into a left and a right part. The left part was analyzed for gene expression and dissected into 4 different areas:
(§3) Limbic system (containing nucleus accumbens, most parts of the olfactory tubercle, ventral pallidum and amygdala), striatum, frontal cortex, and hippocampus.
(§4) Total RNA was prepared by RNeasy Plus Universal Tissue Mini Kit (Qiagen).
(§5) RNA pellets were dissolved in RNAse-free water and stored at −80° C. The sample concentration was determined spectrophotometrically by a Nanorop ND-1000.
A two-step reversed transcription was performed by using a SuperScript III kit (Invitrogen). 1 μg of total RNA was reversed transcribed with 5 μl 2× RT Reaction Mix, 1 μl RT Enzyme and the mix volume was adjusted to 10 μl with RNAse-free water. The samples were incubated at 25° C. for 10 mi, 50° C. for 30 mi and finally 85° C. for 5 mi. 1 U of E. coli RNase H was added following incubation at 37° C. for 20 mi and 85° C. for 5 minutes. The cDNA solution was diluted 40 times in Tris EDTA buffer solution pH8 (Merck) and stored at −20° C.
Three sequences (arc and two reference genes) were amplified together in a triplex PCR-reaction. For real-time PCR measurements: 5 μl of the cDNA reaction was amplified in a 20 μl reaction mixture containing 10 μl PerfeCTa MultiPlex qPCR SuperMix (Quantabio), 3.5 μl RNAse-free water, 0.15 μM of each primer and 0.1 μM of each probe. Real-time PCR was measured on CFX96 (Bio-Rad) using the following settings for all genes: 3 mi pre-incubation at 95° C. followed by 40 cycles of denaturation at 95° C. for 15s, annealing and elongation at 60° C. for 1 mi. […]
FIG. 5 illustrates the effects on tissue levels of Arc mRNA in four different regions of the brain (limbic regions, striatum, frontal cortex and hippocampus) after subcutaneous administration of two different compounds at two different doses as in comparison to that of corresponding control experiments. The bars in the left half of the figure represent the effects on ARC by the prior art compound according to Preparation 4A ((4aR,10aR)-1-propyl-1,2,3,4,4a,5,8,9,10,10a-decahydrobenzo[g]quinolin-6(7H)-one) and the bars in the right half of the figure represent the effects on ARC by the compound of the present disclosure according to Example 5 oxalic acid salt of ((4aR,10aR)-1-propyl-1,2,3,4,4a,5,6,7,8,9,10,10a-dodecahydrobenzo[g]quinolin-6-yl acetate (Mixture of 6R and 6S epimers). The effects on tissue levels of Arc by both of the two aforementioned compounds were measured at two different doses (0.3 μmol/kg and 1 μmol/kg) and the effect is presented as percent of control means±SEM. Statistical significance was assessed using Student's t-test (2 tailed) vs controls.

Npas4 = Npas4 mRNA tissue levels in brain regions (TaqMan PCR); conditions: 60 min after injection; to a greater extent than the prior art compound according to Preparation 4A
Method: as §1, §2, §3, §4, §5
A two-step reversed transcription was performed by using a SuperScript III kit (Invitrogen). 1 μg of total RNA was reversed transcribed with 5 μl 2× RT Reaction Mix, 1 μl RT Enzyme and the mix volume was adjusted to 10 μl with RNAse-free water. The samples were incubated at 25° C. for 10 mi, 50° C. for 30 mi and finally 85° C. for 5 mi. […]
EGR-1 (Early growth response qRnoCEP0022872) was analyzed in duplex with the reference gene HPRT (hypoxanthine phosphoribosyltransferase qRnoCEP0050840). Npas4 (neuronal PAS domain protein4 qRnoCEP0029461) was analyzed in singleplex. The reference gene Ppia (cyclophilin A peptidyl-propyl cis-trans isomeraseqRnoCIP0050815) was also analyzed in order to quantify gene expression for genes of interest.

Structure (SMILES)	effect on motor activity patterns (distance travelled) [1]	duration of action as compared to the prior art compound (trend) ([1]; 0.3 μmol/kg, increase in desired effect observed much later in the experiment)	on-set of action (distance travelled increases after the initial decrease) ([1]; 0.3 μmol/kg)	tissue levels of Arc in the frontal cortex (Arc mRNA)	tissue levels of Arc in the limbic regions (Arc mRNA)	tissue levels of Npas4 in the limbic regions (Npas4)	immediate effect on motor activity: long distance travelled already within ([1]; 0.3 μmol/kg SC)
CCCN1CCC[C@@H]2CC3=C(CCCC3OC(C)=O)C[C@H]21.O=C(O)C(=O)O (stereo partly drawn) [Example 5, (4aR,10aR)-1-propyl-1,2,3,4,4a,5,6,7,8,9,10,10a-dodecahydrobenzo[g]quinolin-6-yl acetate]	induce hyperactivity	longer duration of action	35 to 40 min	dose-dependently increase	dose-dependently increases	increases tissue levels	–
CCCN1CCC[C@@H]2CC3=C(CCCC3=O)C[C@H]21 [Preparation 4A, (4aR,10aR)-1-propyl-1,2,3,4,4a,5,8,9,10,10a-decahydrobenzo[g]quinolin-6(7H)-one, reference compound]	induce hyperactivity	–	20 to 25 min	dose-dependently increase	does not have	–	20 to 45 min
